Experimental data as given in PMC10128108 (RSC Advances, 2023).
“Also recorded” adds a separate entry of the source. Each block holds one compound with its values, some of them ahead of it.

What was measured:
[1] = tested on: human lung fibroblasts (WI-38) normal cells; assay: MTT cytotoxicity assay, normal WI-38 cells; type: cell-based; details: WI-38, read-out: IC50 against WI-38
[2] = tested on: HCT-116 colorectal cancer cell line; assay: MTT antiproliferative assay, HCT-116; details: for IC50: Homo sapiens, HCT-116, read-out: IC50 against HCT-116; for SI (selectivity index), HCT-116: relative to normal WI-38 cells
[3] = tested on: HepG-2 liver cancer cell line; assay: MTT antiproliferative assay, HepG-2; details: for IC50: Homo sapiens, HepG2, read-out: IC50 against HepG-2; for SI (selectivity index), HepG-2: relative to normal WI-38 cells
[4] = tested on: MCF-7 breast cancer cell line; assay: MTT antiproliferative assay, MCF-7; details: for IC50: Homo sapiens, MCF7, read-out: IC50 against MCF-7; for SI (selectivity index), MCF-7: relative to normal WI-38 cells
Bax = Bax level, ELISA in HepG-2; type: cell-based, human; details: for Bax: HepG-2, 24 h, 5a at 3.42 μM; for Bax/Bcl-2: ratio of the two levels, HepG-2
HepG-2 cells [5] = assay: Cell cycle analysis; type: cell-based, human; details: 24 h
Bcl-2 = Bcl-2 level, ELISA in HepG-2; type: cell-based, human; details: for Bcl-2: HepG-2, 24 h, 5a at 3.42 μM
p53 = p53 level, ELISA in HepG-2; type: cell-based, human
caspase-3 = assay: Caspase-3 level, ELISA in HepG-2; type: cell-based, human; details: for Casp-3: HepG-2, 24 h, 5a at 3.42 μM
c-Met kinase = c-Met kinase (Homo sapiens, UniProt P08581); assay: c-Met kinase inhibitory assay
HepG-2 cells [6] = assay: Annexin V-FITC/PI apoptosis assay; type: cell-based, human
[7] = HepG-2, IC50 concentration (3.42 μM)
[8] = with respect to untreated HepG-2 cells

Chain of c-Met kinase (P08581 25-1390): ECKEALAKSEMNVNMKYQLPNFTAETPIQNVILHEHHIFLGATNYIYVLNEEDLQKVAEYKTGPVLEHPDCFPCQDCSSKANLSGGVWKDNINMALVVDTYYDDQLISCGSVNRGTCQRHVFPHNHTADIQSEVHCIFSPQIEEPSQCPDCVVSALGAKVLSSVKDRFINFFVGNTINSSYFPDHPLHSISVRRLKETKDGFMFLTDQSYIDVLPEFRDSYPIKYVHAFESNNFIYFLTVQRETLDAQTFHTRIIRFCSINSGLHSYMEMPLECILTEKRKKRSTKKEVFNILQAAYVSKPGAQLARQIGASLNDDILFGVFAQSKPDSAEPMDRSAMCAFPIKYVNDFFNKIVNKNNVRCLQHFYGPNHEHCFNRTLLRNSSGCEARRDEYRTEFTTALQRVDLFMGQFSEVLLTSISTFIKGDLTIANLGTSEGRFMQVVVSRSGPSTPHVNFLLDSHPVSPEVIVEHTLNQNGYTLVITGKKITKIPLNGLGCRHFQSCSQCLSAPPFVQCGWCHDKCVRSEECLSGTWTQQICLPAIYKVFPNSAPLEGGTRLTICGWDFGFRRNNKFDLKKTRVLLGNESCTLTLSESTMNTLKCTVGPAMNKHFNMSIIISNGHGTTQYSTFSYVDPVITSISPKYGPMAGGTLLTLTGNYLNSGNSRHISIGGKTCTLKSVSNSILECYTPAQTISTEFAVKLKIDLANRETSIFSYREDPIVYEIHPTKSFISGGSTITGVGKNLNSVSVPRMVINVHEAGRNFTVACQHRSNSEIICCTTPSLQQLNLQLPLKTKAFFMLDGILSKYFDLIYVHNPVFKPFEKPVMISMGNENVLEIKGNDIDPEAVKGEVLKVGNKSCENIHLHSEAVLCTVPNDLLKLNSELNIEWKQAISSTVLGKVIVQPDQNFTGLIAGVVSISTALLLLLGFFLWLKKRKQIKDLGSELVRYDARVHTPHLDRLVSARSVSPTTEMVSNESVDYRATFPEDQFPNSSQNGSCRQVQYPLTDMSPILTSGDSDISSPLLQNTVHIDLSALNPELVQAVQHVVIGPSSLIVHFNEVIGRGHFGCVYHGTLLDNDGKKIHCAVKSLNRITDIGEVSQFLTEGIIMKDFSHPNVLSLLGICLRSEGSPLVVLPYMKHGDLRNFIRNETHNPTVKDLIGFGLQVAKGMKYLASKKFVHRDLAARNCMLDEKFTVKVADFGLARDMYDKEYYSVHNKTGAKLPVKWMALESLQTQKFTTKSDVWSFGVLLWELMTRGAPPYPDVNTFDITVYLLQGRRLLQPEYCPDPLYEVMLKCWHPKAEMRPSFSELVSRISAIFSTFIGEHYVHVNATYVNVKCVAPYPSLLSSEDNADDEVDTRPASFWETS

IC50 [2]: 5.26 ± 0.31 µM | IC50 [3]: 2.87 ± 0.15 µM | IC50 [4]: 3.58 ± 0.45 µM
Compound: O=c1[nH]cc(F)c(=O)[nH]1 [5-Fluorouracil, reference compound]
IC50 [1]: 79.7 ± 0.64 µM | SI (selectivity index), HCT-116 [2]: 15.15 | SI (selectivity index), HepG-2 [3]: 27.77 | SI (selectivity index), MCF-7 [4]: 22.26

IC50 [2]: 6.27 ± 1.15 µM | IC50 (c-Met kinase): 0.00427 ± 0.00031 µM | IC50 [3]: 3.42 ± 1.31 µM | IC50 [4]: 5.25 ± 1.04 µM
Compound: Cc1ccc(S(=O)(=O)n2nc(C)c3c(-c4ccccc4)c(C#N)c(=S)[nH]c32)cc1 [Compound 5a, 3-Methyl-4-phenyl-6-thioxo-1-tosyl-6,7-dihydro-1H-pyrazolo[3,4-b]pyridine-5-carbonitrile]
Bax (Bax): 211.40 ± 0.25 pg/mL | Bax/Bcl-2 (Bax): 101.14 | fold increase of Bax level (Bax; vs untreated HepG-2 cells): ~5.4 folds | fold increase of Bax/Bcl-2 ratio (Bax; vs untreated HepG-2 cells): 21 times | IC50 [1]: 80.46 ± 0.33 µM | cell cycle arrest phase (HepG-2 cells [5]; HepG-2, 3.42 μM): arrested the cell cycle at the G1/S phase; also recorded: cell cycle arrest at the G1/S phase | percentage of cells in G0–G1 phase (HepG-2 cells [5]; [7]): 51.93% | percentage of cells in G2/M phase (HepG-2 cells [5]; [7]): 3.89% | percentage of cells in S phase (HepG-2 cells [5]; [7]): 44.18% | Bcl-2 (Bcl-2): 2.09 ± 0.15 ng/mL | fold reduction of Bcl-2 level (Bcl-2; vs untreated HepG-2 cells): ~3.9 folds | SI (selectivity index), HCT-116 [2]: 12.83 | p53 (p53; HepG-2, 24 h, 5a at 3.42 μM): 825.22 ± 0.40 pg/mL | fold upregulation of p53 (p53; vs untreated HepG-2 cells): 6.9 folds | Casp-3 (caspase-3): 42.60 ± 0.10 ng/mL | fold upregulation of caspase-3 (caspase-3; vs untreated HepG-2 cells): 23.8 folds | fold more potent than erlotinib against HepG-2 ([3]; ratio of IC50 values): approximately 2.4 fold | SI (selectivity index), HepG-2 [3]: 23.52 | Apoptosis Early (HepG-2 cells [6]; HepG-2, 3.42 μM, 24 h): 24.63% | Apoptosis Late (HepG-2 cells [6]; HepG-2, 3.42 μM, 24 h): 16.28% | Necrosis (HepG-2 cells [6]; HepG-2, 3.42 μM, 24 h): 6.24% | fold increase of early apoptotic cells (HepG-2 cells [6]; [8]): about 63 folds | fold increase of late apoptotic cells (HepG-2 cells [6]; [8]): ~116 folds | SI (selectivity index), MCF-7 [4]: 15.32

IC50 [2]: 9.21 ± 0.02 µM | IC50 (c-Met kinase): 0.00795 ± 0.00017 µM | IC50 [3]: 3.56 ± 1.5 µM | IC50 [4]: 6.82 ± 1.1 µM
Compound: Cc1ccc(S(=O)(=O)n2nc(C)c3c(-c4ccc(Cl)cc4)c(C#N)c(=S)[nH]c32)cc1 [Compound 5b, 4-(4-Chlorophenyl)-3-methyl-6-thioxo-1-tosyl-6,7-dihydro-1H-pyrazolo[3,4-b]pyridine-5-carbonitrile]
IC50 [1]: 85.1 ± 0.32 µM | SI (selectivity index), HCT-116 [2]: 9.23 | fold more potent than erlotinib against HepG-2 ([3]; ratio of IC50 values): approximately 2.4 fold | SI (selectivity index), HepG-2 [3]: 23.90 | SI (selectivity index), MCF-7 [4]: 12.47

IC50 [2]: 47.38 ± 0.11 µM | IC50 [3]: 30.58 ± 0.01 µM | IC50 [4]: 43.02 ± 0.24 µM
Compound: Cc1ccc(S(=O)(=O)n2nc(C)c3c(-c4ccccc4)c4c(N)c(C(N)=O)sc4nc32)cc1 [Compound 8a, 5-Amino-3-methyl-4-phenyl-1-tosyl-1H-pyrazolo[3,4-b]thieno[3,2-e]pyridine-6-carboxamide]

IC50 [2]: 67.84 ± 0.02 µM | IC50 [3]: 52.1 ± 0.71 µM | IC50 [4]: 60.23 ± 0.17 µM
Compound: CC(=O)c1sc2nc3c(c(C)nn3S(=O)(=O)c3ccc(C)cc3)c(-c3ccccc3)c2c1N [Compound 8b, 1-(5-Amino-3-methyl-4-phenyl-1-tosyl-1H-pyrazolo[3,4-b]thieno[3,2-e]pyridin-6-yl)ethan-1-one]

IC50 [2]: 41.77 ± 0.4 µM | IC50 [3]: 25.4 ± 0.5 µM | IC50 [4]: 36.25 ± 0.13 µM
Compound: Cc1ccc(S(=O)(=O)n2nc(C)c3c(-c4ccc(Cl)cc4)c4c(N)c(C#N)sc4nc32)cc1 [Compound 8c, 5-Amino-4-(4-chlorophenyl)-3-methyl-1-tosyl-1H-pyrazolo[3,4-b]thieno[3,2-e]pyridine-6-carbonitrile]

IC50 [2]: 38.11 ± 0.3 µM | IC50 [3]: 23.12 ± 0.08 µM | IC50 [4]: 32.14 ± 0.19 µM
Compound: CCOC(=O)c1sc2nc3c(c(C)nn3S(=O)(=O)c3ccc(C)cc3)c(-c3ccc(Cl)cc3)c2c1N [Compound 8d, Ethyl 5-amino-4-(4-chlorophenyl)-3-methyl-1-tosyl-1H-pyrazolo[3,4-b]thieno[3,2-e]pyridine-6-carboxylate]

IC50 [2]: 18.2 ± 0.62 µM | IC50 [3]: 12.31 ± 0.1 µM | IC50 [4]: 14.2 ± 0.33 µM
Compound: CC(=O)c1sc2nc3c(c(C)nn3S(=O)(=O)c3ccc(C)cc3)c(-c3ccc(Cl)cc3)c2c1N [Compound 8e, 1-(5-Amino-4-(4-chlorophenyl)-3-methyl-1-tosyl-1H-pyrazolo[3,4-b]thieno[3,2-e]pyridin-6-yl)ethan-1-one]

IC50 [2]: 18.86 ± 0.12 µM | IC50 [3]: 15.4 ± 0.3 µM | IC50 [4]: 19.3 ± 0.45 µM
Compound: Cc1ccc(S(=O)(=O)n2nc(C)c3c(-c4ccc(Cl)cc4)c4c(N)c(C(=O)O)sc4nc32)cc1 [Compound 8f, 5-Amino-4-(4-chlorophenyl)-3-methyl-1-tosyl-1H-pyrazolo[3,4-b]thieno[3,2-e]pyridine-6-carboxylic acid]

IC50 [2]: 17.2 ± 0.37 µM | IC50 [3]: 10.2 ± 0.15 µM | IC50 [4]: 13.7 ± 0.7 µM
Compound: Cc1ccc(S(=O)(=O)n2nc(C)c3sc(=S)n(C)c32)cc1 [Compound 10a, 3,6-Dimethyl-1-tosyl-1,6-dihydro-5H-pyrazolo[3,4-d]thiazole-5-thione]

IC50 [2]: 9.36 ± 0.45 µM | IC50 [3]: 6.75 ± 0.62 µM | IC50 [4]: 8.13 ± 0.4 µM
Compound: Cc1ccc(S(=O)(=O)n2nc(C)c3sc(=S)n(-c4ccccc4)c32)cc1 [Compound 10b, 3-Methyl-6-phenyl-1-tosyl-1H-pyrazolo[3,4-d]thiazole-5(6H)-thione]
IC50 [1]: 85.41 ± 0.51 µM | SI (selectivity index), HCT-116 [2]: 9.12 | fold less potent than 5-FU against HepG-2 ([3]; ratio of IC50 values): 2.3 fold | SI (selectivity index), HepG-2 [3]: 12.65 | SI (selectivity index), MCF-7 [4]: 10.50

Compound: C#Cc1cccc(Nc2ncnc3cc(OCCOC)c(OCCOC)cc23)c1 [Erlotinib, reference compound]
Bax (Bax): 200.20 ± 0.25 pg/mL | Bax/Bcl-2 (Bax): 118.84 | IC50 [1]: 70 ± 1.08 µM | Bcl-2 (Bcl-2): 1.69 ± 0.10 ng/mL | Casp-3 (caspase-3): 58.41 ± 0.12 ng/mL
